# Data from ChEMBL document CHEMBL1208786, “1-Methyl-1H-pyrrole-2-carbonitrile containing tetrahydronaphthalene derivatives as non-steroidal progesterone receptor antagonists” (Bioorg Med Chem Lett, 2010).
# The source made the active and inactive calls. The calls are words filed in the database; no cut-off is given here.
# Assays:
# Progesterone receptor = molecular target: T1, Progesterone receptor (Homo sapiens, UniProt P06401); test: Antagonist activity at progesterone receptor in human T47D cells assessed as inhibition of progesterone-induced alkaline phosphatase activity; format: functional, cell-based
# T1 sequence (P06401 whole entry): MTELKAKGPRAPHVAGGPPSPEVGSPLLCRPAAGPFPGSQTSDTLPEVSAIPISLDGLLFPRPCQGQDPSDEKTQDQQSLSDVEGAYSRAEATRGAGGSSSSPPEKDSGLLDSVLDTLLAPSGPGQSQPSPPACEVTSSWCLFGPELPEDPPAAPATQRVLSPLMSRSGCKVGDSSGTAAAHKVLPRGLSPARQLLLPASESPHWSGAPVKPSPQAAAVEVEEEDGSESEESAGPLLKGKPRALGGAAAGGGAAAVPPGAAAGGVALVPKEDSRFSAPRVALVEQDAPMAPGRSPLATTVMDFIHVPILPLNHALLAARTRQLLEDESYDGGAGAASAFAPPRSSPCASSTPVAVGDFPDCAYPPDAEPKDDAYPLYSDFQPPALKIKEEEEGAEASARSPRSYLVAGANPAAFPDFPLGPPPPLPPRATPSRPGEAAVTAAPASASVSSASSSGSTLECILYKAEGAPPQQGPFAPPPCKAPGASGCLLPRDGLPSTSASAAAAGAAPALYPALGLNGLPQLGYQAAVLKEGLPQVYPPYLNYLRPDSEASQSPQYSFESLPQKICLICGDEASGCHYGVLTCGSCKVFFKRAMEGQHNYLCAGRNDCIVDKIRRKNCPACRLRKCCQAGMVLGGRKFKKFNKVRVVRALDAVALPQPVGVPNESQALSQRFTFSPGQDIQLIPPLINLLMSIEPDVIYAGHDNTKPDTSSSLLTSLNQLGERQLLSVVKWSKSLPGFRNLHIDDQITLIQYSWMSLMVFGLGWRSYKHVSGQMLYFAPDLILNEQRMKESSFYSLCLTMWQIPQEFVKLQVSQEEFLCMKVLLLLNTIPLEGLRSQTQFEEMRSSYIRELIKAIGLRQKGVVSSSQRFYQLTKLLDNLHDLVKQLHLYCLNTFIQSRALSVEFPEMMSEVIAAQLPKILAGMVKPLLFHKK
# [1] = molecular target: T2, Mineralocorticoid receptor (Homo sapiens) (UniProt P08235); test: Antagonist activity at mineralocorticoid receptor ligand binding domain up to 10 uM by two hybrid assay
# T2 sequence (whole entry): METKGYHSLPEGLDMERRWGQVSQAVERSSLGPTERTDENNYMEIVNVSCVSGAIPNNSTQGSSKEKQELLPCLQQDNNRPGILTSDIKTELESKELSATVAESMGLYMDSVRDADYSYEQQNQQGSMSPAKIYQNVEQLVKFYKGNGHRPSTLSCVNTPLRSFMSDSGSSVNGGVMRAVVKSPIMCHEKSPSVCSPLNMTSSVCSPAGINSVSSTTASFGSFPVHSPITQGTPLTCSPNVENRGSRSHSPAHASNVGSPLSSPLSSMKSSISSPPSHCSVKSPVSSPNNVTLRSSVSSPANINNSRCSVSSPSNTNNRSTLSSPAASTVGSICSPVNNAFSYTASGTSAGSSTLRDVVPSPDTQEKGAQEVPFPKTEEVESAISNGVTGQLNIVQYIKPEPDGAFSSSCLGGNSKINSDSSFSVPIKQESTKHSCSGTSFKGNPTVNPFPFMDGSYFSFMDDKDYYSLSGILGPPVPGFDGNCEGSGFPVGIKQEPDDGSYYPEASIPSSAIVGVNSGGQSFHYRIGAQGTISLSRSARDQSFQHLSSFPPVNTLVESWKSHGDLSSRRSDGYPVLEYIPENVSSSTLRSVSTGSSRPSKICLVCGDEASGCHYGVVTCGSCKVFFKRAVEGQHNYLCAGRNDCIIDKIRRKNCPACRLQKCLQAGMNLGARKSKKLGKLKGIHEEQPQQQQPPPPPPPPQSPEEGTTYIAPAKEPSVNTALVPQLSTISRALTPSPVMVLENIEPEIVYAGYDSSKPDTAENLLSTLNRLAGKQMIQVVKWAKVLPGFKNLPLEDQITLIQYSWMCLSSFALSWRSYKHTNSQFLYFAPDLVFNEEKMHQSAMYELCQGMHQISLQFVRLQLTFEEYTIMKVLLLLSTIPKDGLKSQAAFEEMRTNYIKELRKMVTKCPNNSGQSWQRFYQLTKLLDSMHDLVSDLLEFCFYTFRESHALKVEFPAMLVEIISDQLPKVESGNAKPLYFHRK
# [2] = molecular target: T3, Estrogen receptor (Homo sapiens) (UniProt P03372); test: Antagonist activity at estrogen receptor ligand binding domain up to 10 uM by two hybrid assay
# T3 sequence (whole entry): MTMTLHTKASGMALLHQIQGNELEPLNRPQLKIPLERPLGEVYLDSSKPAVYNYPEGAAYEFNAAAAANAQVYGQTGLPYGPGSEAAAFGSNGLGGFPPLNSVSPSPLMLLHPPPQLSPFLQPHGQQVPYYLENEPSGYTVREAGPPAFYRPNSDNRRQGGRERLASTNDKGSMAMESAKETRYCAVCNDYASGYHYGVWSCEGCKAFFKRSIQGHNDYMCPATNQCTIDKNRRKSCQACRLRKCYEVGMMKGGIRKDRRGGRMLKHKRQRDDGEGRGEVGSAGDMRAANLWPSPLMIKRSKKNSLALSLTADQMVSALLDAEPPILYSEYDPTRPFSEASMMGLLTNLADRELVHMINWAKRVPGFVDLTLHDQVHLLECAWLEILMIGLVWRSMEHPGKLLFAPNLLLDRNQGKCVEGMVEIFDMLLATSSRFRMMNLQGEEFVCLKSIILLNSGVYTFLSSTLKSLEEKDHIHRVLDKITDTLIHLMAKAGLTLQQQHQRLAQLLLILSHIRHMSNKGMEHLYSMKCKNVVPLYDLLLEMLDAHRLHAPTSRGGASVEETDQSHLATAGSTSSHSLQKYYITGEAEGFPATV
# Androgen receptor = molecular target: T4, Androgen receptor (Homo sapiens, UniProt P10275); test: Antagonist activity at androgen receptor ligand binding domain by two hybrid assay
# T4 sequence (P10275 whole entry): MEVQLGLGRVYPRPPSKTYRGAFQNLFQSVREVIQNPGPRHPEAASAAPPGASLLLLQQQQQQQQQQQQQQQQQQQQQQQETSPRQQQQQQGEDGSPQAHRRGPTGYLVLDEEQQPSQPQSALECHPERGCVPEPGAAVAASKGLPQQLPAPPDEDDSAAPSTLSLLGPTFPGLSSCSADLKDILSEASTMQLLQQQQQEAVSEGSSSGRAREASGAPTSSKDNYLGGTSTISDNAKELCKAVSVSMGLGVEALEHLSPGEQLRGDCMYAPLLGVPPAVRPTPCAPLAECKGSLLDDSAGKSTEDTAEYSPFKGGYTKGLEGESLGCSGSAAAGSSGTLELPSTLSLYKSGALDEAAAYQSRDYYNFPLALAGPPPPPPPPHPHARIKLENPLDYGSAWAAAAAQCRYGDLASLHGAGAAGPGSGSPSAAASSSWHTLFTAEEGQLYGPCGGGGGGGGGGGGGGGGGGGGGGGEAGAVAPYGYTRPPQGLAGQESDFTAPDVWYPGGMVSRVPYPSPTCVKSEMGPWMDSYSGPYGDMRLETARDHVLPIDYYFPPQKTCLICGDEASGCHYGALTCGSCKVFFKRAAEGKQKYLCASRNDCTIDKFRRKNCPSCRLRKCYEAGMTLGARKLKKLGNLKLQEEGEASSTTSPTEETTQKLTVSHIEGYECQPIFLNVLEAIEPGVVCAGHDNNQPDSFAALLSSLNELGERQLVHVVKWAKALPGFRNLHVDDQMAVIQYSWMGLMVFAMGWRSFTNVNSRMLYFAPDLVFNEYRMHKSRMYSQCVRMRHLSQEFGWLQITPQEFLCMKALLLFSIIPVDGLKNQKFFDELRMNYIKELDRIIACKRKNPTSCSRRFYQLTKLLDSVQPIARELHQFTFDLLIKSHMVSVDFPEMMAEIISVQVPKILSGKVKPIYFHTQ
# [3] = molecular target: T5, Glucocorticoid receptor (Homo sapiens) (UniProt P04150); test: Antagonist activity at glucocorticoid receptor ligand binding domain up to 10 uM by two hybrid assay
# T5 sequence (whole entry): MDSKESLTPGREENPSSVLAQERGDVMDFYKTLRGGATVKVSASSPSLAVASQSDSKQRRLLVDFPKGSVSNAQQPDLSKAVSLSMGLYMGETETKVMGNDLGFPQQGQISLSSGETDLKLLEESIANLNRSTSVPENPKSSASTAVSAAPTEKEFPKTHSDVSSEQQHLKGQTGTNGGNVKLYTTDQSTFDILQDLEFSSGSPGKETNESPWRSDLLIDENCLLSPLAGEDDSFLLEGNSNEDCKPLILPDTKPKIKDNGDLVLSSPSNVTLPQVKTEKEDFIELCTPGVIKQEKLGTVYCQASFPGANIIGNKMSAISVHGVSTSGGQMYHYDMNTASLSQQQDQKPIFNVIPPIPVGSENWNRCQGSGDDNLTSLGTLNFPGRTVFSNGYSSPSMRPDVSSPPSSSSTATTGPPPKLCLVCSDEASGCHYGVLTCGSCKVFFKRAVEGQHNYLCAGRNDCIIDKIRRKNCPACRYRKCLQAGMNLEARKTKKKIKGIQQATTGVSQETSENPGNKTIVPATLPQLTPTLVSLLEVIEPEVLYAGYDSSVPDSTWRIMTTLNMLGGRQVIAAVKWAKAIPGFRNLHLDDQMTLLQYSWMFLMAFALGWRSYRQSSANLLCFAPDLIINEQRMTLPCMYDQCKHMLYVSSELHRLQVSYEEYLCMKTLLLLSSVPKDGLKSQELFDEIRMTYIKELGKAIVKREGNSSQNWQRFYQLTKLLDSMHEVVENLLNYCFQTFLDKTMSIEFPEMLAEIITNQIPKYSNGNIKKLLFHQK
IC50 (Progesterone receptor),Structure (SMILES),further results
28 nM,Cn1c(C#N)ccc1-c1ccc2c(c1)CCCC2=O,
800 nM,CC(=O)c1ccc(-c2ccc(C#N)n2C)cc1,
27 nM,CCC(O)c1ccc(-c2ccc(C#N)n2C)cc1 (stereo not drawn),
17 nM,CC/C(=N/O)c1ccc(-c2ccc(C#N)n2C)cc1,
7 nM,Cn1c(C#N)ccc1-c1ccc2c(c1)CCCC2O (stereo not drawn),
118 nM,Cn1c(C#N)ccc1-c1ccc(C(O)c2ccccc2)cc1 (stereo not drawn),
36 nM,CC(O)c1ccc(-c2ccc(C#N)n2C)cc1 (stereo not drawn),
10 nM,CC#CC1(O)CCCc2cc(-c3ccc(C#N)n3C)ccc21 (stereo not drawn),
108 nM,C/C(=N/O)c1ccc(-c2ccc(C#N)n2C)cc1,
35 nM,Cn1c(C#N)ccc1-c1ccc2c(c1)CCCC2(O)c1ccccc1 (stereo not drawn),
33 nM,Cn1c(C#N)ccc1-c1ccc2c(c1)CCC/C2=N/O,
6 nM,Cn1c(C#N)ccc1-c1ccc2c(c1)CCCC2(C)O (stereo not drawn),
3 nM,Cn1c(C#N)ccc1-c1ccc(/C(=N\O)C(C)(C)C)cc1,inhibition [1]: inactive; inhibition [2]: inactive; IC50 (Androgen receptor): 165 nM; inhibition [3]: inactive

Structure (SMILES),IC50 (Progesterone receptor),further results
Cn1c(C#N)ccc1-c1ccc(C(O)c2cccs2)cc1 (stereo not drawn),47 nM,
Cn1c(C#N)ccc1-c1ccc(C(=O)C(C)(C)C)cc1,3 nM,inhibition [1]: inactive; inhibition [2]: inactive; IC50 (Androgen receptor): 100 nM; inhibition [3]: inactive
